System: progenitor stem cells in the subgranular zone (SGZ) of the hippocampus
Experiment: BrdU immunostaining, cell proliferation in hippocampal SGZ after chronic antidepressant
Format: in vivo, rat
Conditions: P<0.01; for number of proliferating (BrdU-positive) cells in the SGZ compared with saline-treated control rats: FIG. 1A, chronic administration; for increase in the proliferation rate of progenitor stem cells in the SGZ: versus saline controls, 2 week systemic administration, BrdU twice a day for 4 days, n=5
Protocol: Antidepressant treatment and BrdU dosing. Dosing of adult male Sprague Dawley rats was performed as described above for 14 days (n=10 rats per group). To evaluate the effect of chronic antidepressant treatment on proliferation of progenitor stem cells, 24 hours after the last antidepressant injection, rats were administered BrdU (Sigma, St. Louis, Mo.) (50 mg/kg rig ip injection twice a day) for 4 days prior to euthanesia. To evaluate the effect of chronic antidepressant treatment on survival of progenitor stem cells, a sub-group of rats were allowed to live for 4 weeks after BrdU injection. All rats were perfused through the ascending aorta with 50 ml of 0.9% saline, followed by 400 ml of freshly prepared 4% paraformaldehyde in PBS (pH 7.5). After 30-60 minutes post-perfusion, rat brains were removed and postfixed in 4% paraformaldehyde in PBS overnight, followed by immersion in 30% sucrose/PBS solution for 48-72 hours at 4° C. Brains were rapidly frozen on dry-ice and stored at −80° C. Brain sectioning and staining for BrdU immunoreactivity were performed as previously described by Malberg et al. (2000). Briefly, serial coronal sections of each brain were cut (35 μm thickness) through the entire hippocampus (stereotaxic plates 26-40 according to Paxinos, Watson and Emson, 1980) using a freezing microtome. Every sixth section throughout the hippocampus was processed for BrdU staining. Free-floating sections were maintained in 100 mM PBS (about 100 sections per brain). DNA denaturation of the sections was performed as follows: sections were treated with 50% formamide/50% 2×SSC (0.3 M NaCl/0.03 M sodium citrate) for 2 hours at 65° C., rinsed in PBS (2 times for 5 minutes at room temperature), incubated with 2 N HCl for 30 minutes, followed by 0.1 M boric acid buffer (pH 8.5) for 10 minutes and a final rinse in PBS. For BrdU immunostaining, sections were incubated with 3% H2O2 in PBS for 30 minutes, rinsed in PBS and blocked with 3% normal horse serum in 0.01% TritonX-100 for 30 minutes. […] All BrdU labeled cells in the subgranular zone (SGZ) were counted in each section by an experimenter blinded to the study code. […] The total number of BrdU labeled cells per section were determined and multiplied by 12 to obtain the total number of cells per dentate gyrus. […]
In vivo studies were performed to measure the effects of antidepressant drug treatment on adult hippocampal neurogenesis by immunological methods. […] The BrdU immunostaining and quantitative results indicated a significant increase (˜33%) in the proliferation rate of progenitor stem cells in the subgranular zone (SGZ) of the hippocampus for both venlafaxine (P<0.01; n=5) and fluoxetine (P<0.01; n=5) versus saline controls. […]

Structure (SMILES)	number of proliferating (BrdU-positive) cells in the SGZ compared with saline-treated control rats	increase in the proliferation rate of progenitor stem cells in the SGZ [%]
CNCCC(Oc1ccc(C(F)(F)F)cc1)c1ccccc1 (stereo not shown) [Fluoxetine, fluoxetine]	increased the number of proliferating cells in the SGZ	~33
COc1ccc(C(CN(C)C)C2(O)CCCCC2)cc1 (stereo not shown) [Venlafaxine, venlafaxine]	increased the number of proliferating cells in the SGZ	~33
